Assay results: publication PMC3479967 (Evidence-based Complementary and Alternative Medicine : eCAM, 2012)
Like-named read-outs stand apart in the source and are kept apart here.

Molecular target: T1, UGT1A4 (Homo sapiens, UniProt P22310)
T1 construct: purchased BD Gentest Corp. (Woburn, MA, USA); host or cells: baculovirus-infected insect cells
T1 sequence (P22310 29-534): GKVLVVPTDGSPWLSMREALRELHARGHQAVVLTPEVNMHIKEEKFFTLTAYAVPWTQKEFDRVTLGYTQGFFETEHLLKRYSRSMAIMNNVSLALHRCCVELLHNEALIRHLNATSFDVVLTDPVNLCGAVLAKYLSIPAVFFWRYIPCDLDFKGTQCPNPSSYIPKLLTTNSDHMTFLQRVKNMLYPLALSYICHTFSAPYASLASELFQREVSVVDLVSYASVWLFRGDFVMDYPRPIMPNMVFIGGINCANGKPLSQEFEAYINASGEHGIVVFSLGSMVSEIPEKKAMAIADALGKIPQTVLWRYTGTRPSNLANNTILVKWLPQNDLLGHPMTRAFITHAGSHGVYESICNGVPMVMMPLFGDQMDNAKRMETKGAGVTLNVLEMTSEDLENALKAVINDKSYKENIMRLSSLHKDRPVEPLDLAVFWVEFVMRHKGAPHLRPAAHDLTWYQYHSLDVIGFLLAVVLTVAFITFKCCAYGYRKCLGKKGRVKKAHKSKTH
Experiment: Inhibition of recombinant UGT1A4 activity (TFP glucuronidation)
Format: biochemical
Experimental: TFP was used as the substrate for UGT1A4. Trifluoperazine glucuronide (TFPG) formation was measured using a modification of the method reported. […] Reactions were initiated by the addition of UDPGA and incubations were performed at 37°C in a shaking water bath for 20 min. Incubations were terminated by the addition of 4% acetic acid/96% methanol (0.2 mL) and then centrifuged at 20,500 ×g for 15 min. A 40 μL aliquot of the supernatant fraction was injected into the HPLC column. […] A gradient mobile phase consisting initially of 30 : 70, mobile phase A (acetonitrile) verse mobile phase B (0.5% formic acid/water) was brought to a composition of 90 : 10 in 10 min which was held for 7 min, all at a flow rate of 1 mL/min. Column eluant was monitored by UV absorbance 256 nm. […] The negative controls are the incubation without UDPGA.

[1] = recombinant human UGT1A4, 50 μM TFP, mean ± SD, read-out: IC50 for inhibition of UGT1A4 activity

SMILES | IC50 [µM] | IC50 [1] [µM]
COc1ccc(-c2oc3c(CC=C(C)C)c(O)cc(O)c3c(=O)c2O)cc1 [Icaritin] | > 100 | –
COc1ccc(-c2oc3c(CC=C(C)C)c(O[C@@H]4O[C@H](CO)[C@@H](O)[C@H](O)[C@H]4O)cc(O)c3c(=O)c2O)cc1 [Icariside I] | – | > 100
COc1ccc(-c2oc3c(CC=C(C)C)c(O[C@@H]4O[C@H](CO)[C@@H](O)[C@H](O)[C@H]4O)cc(O)c3c(=O)c2O[C@@H]2O[C@@H](C)[C@H](O)[C@@H](O)[C@H]2O)cc1 [Icariin] | – | 42.8 ± 2.4
